Measurements published in patent US20140094465A1, “Compounds as S-Nitrosoglutathione Reductase Inhibitors” (N30 PHARMACEUTICALS, INC., priority 2011, published 2014).

Molecular target: T1, S-nitrosoglutathione reductase (GSNOR) (Homo sapiens, UniProt P11766)
T1 construct: made in house; host or cells: E. coli
Test: GSNOR assay (inhibition of GSNOR activity, NADH absorbance at 340 nm)
Type: biochemical
Conditions: GSNOR inhibitor activity, Tables 1-6; read-out: IC50 range
How it was run: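 Recombinant GSNOR purified from E. coli, tag removed. Final conditions: 100 mM NaPO4 pH 7.4, 0.240 mM GSNO, 0.300 mM NADH, 0.5 μg/mL enzyme, 1% DMSO; NADH loss followed as 340 nm absorbance change over 3 min at 25 °C. Compounds 100–0.003 μM, triplicate; IC50 by curve analysis.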

T1 sequence (P11766 whole entry): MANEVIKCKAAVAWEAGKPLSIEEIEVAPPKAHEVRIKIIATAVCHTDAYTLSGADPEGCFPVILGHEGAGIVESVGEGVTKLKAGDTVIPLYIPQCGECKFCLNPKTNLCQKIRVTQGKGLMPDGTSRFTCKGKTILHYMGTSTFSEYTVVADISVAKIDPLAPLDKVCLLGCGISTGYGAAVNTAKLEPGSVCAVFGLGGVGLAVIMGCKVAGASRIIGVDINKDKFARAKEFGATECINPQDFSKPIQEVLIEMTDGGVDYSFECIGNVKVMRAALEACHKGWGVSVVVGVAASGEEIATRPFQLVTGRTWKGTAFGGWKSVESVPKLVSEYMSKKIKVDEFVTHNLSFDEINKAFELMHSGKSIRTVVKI

| IC50 | SMILES |
| --- | --- |
| < 100 nM | O=c1[nH]c(-c2ccc(-c3c(C(F)(F)F)oc4cc(O)ccc4c3=O)c(Cl)c2)no1 [IV-40] |
| < 100 nM | O=C(O)c1ccc(-c2c(C(F)(F)F)oc3cc(O)ccc3c2=O)c(Cl)c1 [IV-15] |
| < 100 nM | O=C(O)c1ccc(-c2ncc3cc(O)ccc3n2)cc1 [II-1] |
| < 100 nM | O=C(O)c1ccc(-c2cc3ccc(O)cc3cc2F)c(Cl)c1 [III-21, 3-chloro-4-(3-fluoro-6-hydroxynaphthalen-2-yl)benzoic acid] |
| 100 to 1000 nM | O=C(O)c1ccc(C[S+]([O-])c2ccc(O)cc2)c(F)c1 (stereo not drawn) [VI-25, 3-fluoro-4-(((4-hydroxyphenyl)sulfinyl)methyl)benzoic acid] |
| < 100 nM | O=C(O)c1ccc(-c2ccc3c(F)c(O)ccc3c2)c(F)c1 [III-32] |
| 1000 to 10000 nM | CC(C(=O)c1ccc(O)cc1O)c1ccc(C(=O)O)cc1 (stereo not drawn) [VI-12, 4-(1-(2,4-dihydroxyphenyl)-1-oxopropan-2-yl)benzoic acid] |
| 100 to 1000 nM | O=C(NO)c1ccc(-c2c(C(F)(F)F)oc3cc(O)ccc3c2=O)cc1 [IV-37] |
| 100 to 1000 nM | O=C(O)c1ccc(CSc2ccc(O)cc2)c(F)c1 [VI-24, 3-fluoro-4-(((4-hydroxyphenyl)thio)methyl)benzoic acid] |
| < 100 nM | O=C(O)c1ccc(-c2nnc3cc(O)ccc3n2)c(F)c1 [II-20] |
| < 100 nM | O=C(O)c1ccc(-c2cc3ccc(O)cc3cn2)c(F)c1 [II-24, 3-fluoro-4-(7-hydroxyisoquinolin-3-yl)benzoic acid] |
| < 100 nM | O=C(O)c1ccc(-c2cc(F)c3cc(O)ccc3c2)c(F)c1 [III-38, 3-fluoro-4-(4-fluoro-6-hydroxynaphthalen-2-yl)benzoic acid] |
| 100 to 1000 nM | Oc1ccc2nc(C(F)(F)F)c(-c3ccc(-c4nnn[nH]4)cc3)nc2c1 [II-16] |
| 1000 to 10000 nM | O=C(O)c1ccc(CCC(=O)c2ccc(O)cc2)cc1 [VI-30, 4-(3-(4-hydroxyphenyl)-3-oxopropyl)benzoic acid] |
| < 100 nM | O=C(O)c1ccc(-c2cc3ccc(O)cc3cc2F)cc1 [III-23, 4-(3-fluoro-6-hydroxynaphthalen-2-yl)benzoic acid] |
| < 100 nM | Oc1ccc2nc(-c3ccc(-c4nn[nH]n4)cc3)c(C(F)(F)F)nc2c1 [II-10] |
| < 100 nM | O=C(O)c1ccc(-c2nc3ccc(O)cc3nc2C(F)(F)F)c(F)c1 [II-26, 3-fluoro-4-(6-hydroxy-3-(trifluoromethyl)quinoxalin-2-yl)benzoic acid] |
| 100 to 1000 nM | O=C(O)c1ccc(CC(=O)c2cc(F)c(O)cc2F)c(F)c1 [VI-7, 4-(2-(2,5-difluoro-4-hydroxyphenyl)-2-oxoethyl)-3-fluorobenzoic acid] |
| 100 to 1000 nM | O=C(O)c1ccc(CC(=O)c2ccc(O)c(F)c2O)c(F)c1 [VI-27, 3-fluoro-4-(2-(3-fluoro-2,4-dihydroxyphenyl)-2-oxoethyl)benzoic acid] |
| < 100 nM | CC(F)(F)c1oc2cc(O)ccc2c(=O)c1-c1ccc(C(=O)O)cc1 [IV-16] |
| < 100 nM | O=C(O)c1ccc(-c2ncc3cc(O)ccc3n2)c(Cl)c1 [II-3] |
| 100 to 1000 nM | COCc1oc2cc(O)ccc2c(=O)c1-c1ccc(C(=O)O)cc1 [IV-2] |
| < 100 nM | O=c1c(-c2ccc(-c3nnn[nH]3)cc2)coc2cc(O)ccc12 [IV-44] |
| 1000 to 10000 nM | O=C(O)c1ccc(CCC(=O)c2ccc(O)c(F)c2F)cc1 [VI-29, 4-(3-(2,3-difluoro-4-hydroxyphenyl)-3-oxopropyl)benzoic acid] |
| < 100 nM | Cc1cc(C(=O)O)ccc1-c1c(C(F)(F)F)oc2cc(O)ccc2c1=O [IV-43] |
| 100 to 1000 nM | O=[N+]([O-])c1cc(-c2ccc3cc(O)ccc3c2)ccc1O [III-36, 6-(4-hydroxy-3-nitrophenyl)naphthalen-2-ol] |
| 100 to 1000 nM | O=C(O)c1ccc(NC(=O)c2ccc(O)cc2F)cc1 [VI-15, 4-(2-fluoro-4-hydroxybenzamido)benzoic acid] |

Further lines, the compound ahead of its results:

| SMILES | IC50 |
| --- | --- |
| Cc1cc2cc(O)ccc2nc1-c1ccc(C(=O)O)cc1 [Compound I-1] | < 100 nM |
| N#Cc1cc2cc(O)ccc2nc1-c1ccc(C(=O)O)cc1 [Compound I-52, 4-(3-cyano-6-hydroxyquinolin-2-yl)benzoic acid] | < 100 nM |
| O=C(O)c1ccc(Nc2c(C(F)(F)F)oc3cc(O)ccc3c2=O)cc1 [Compound V-15, 4-(7-hydroxy-4-oxo-2-(trifluoromethyl)-4H-chromen-3-ylamino)benzoic acid] | 1000 to 10000 nM |
| O=C(O)c1ccc(-c2ccc3cc(O)ccc3n2)cc1Cl [Compound I-9] | 1000 to 10000 nM |
| O=[N+]([O-])c1cc(-c2ccc3cc(O)ccc3n2)ccc1O [Compound I-61, 2-(4-hydroxy-3-nitrophenyl)quinolin-6-ol] | 1000 to 10000 nM |
| O=C(O)C1CC=C(c2ccc3cc(O)ccc3n2)CC1 (stereo not drawn) [Compound I-16] | 100 to 1000 nM |
| CC(C)c1oc2cc(O)ccc2c(=O)c1Oc1ccc(C(=O)O)cc1 [Compound V-3, 4-(7-hydroxy-2-isopropyl-4-oxo-4H-chromen-3-yloxy)benzoic acid] | 1000 to 10000 nM |
| Oc1ccc2nc(-c3ccc(-c4nn[nH]n4)cc3)cc(Cl)c2c1 [Compound I-11] | < 100 nM |
| O=C(O)C1CCC(c2ccc3cc(O)ccc3n2)CC1 (stereo not drawn) [Compound I-6] | 100 to 1000 nM |
| O=C(O)c1ccc(-c2ccc3c(Br)c(O)ccc3n2)cc1 [Compound I-45, 4-(5-bromo-6-hydroxyquinolin-2-yl)benzoic acid] | 100 to 1000 nM |
| COc1cc(-c2ccc3cc(O)ccc3n2)ccc1C(=O)O [Compound I-59, 4-(6-hydroxyquinolin-2-yl)-2-methoxybenzoic acid] | 100 to 1000 nM |
| O=C(O)c1ccc(-c2cc(F)c3cc(O)ccc3n2)cc1 [Compound I-26, 4-(4-fluoro-6-hydroxyquinolin-2-yl)benzoic acid] | < 100 nM |
| O=C(O)c1ccc(-c2cc(F)c3cc(O)ccc3n2)c(F)c1 [Compound I-40, 3-fluoro-4-(4-fluoro-6-hydroxyquinolin-2-yl)benzoic acid] | < 100 nM |
| COc1ccc(-c2oc3cc(O)ccc3c(=O)c2Oc2ccc(C(=O)O)cc2)cc1 [Compound V-9, 4-(7-hydroxy-2-(4-methoxyphenyl)-4-oxo-4H-chromen-3-yloxy)benzoic acid] | 1000 to 10000 nM |
| O=c1nc(-c2ccc(-c3ccc4cc(O)ccc4n3)cc2)[nH]s1 [Compound I-29] | 100 to 1000 nM |
| O=c1nc(-c2ccc(-c3ccc4cc(O)ccc4n3)cc2)o[nH]1 [Compound I-34] | 100 to 1000 nM |
| CN(C)c1cc(C(=O)O)ccc1-c1ccc2cc(O)ccc2n1 [Compound I-25] | < 100 nM |
| CN(C)c1cc(-c2ccc(C(=O)O)cc2)nc2ccc(O)cc12 [Compound I-47, 4-(4-(dimethylamino)-6-hydroxyquinolin-2-yl)benzoic acid] | 100 to 1000 nM |
| CN(c1ccc(C(=O)O)cc1)c1c(C(F)(F)F)oc2cc(O)ccc2c1=O [Compound V-14, 4-((7-hydroxy-4-oxo-2-(trifluoromethyl)-4H-chromen-3-yl)(methyl)amino)benzoic acid] | 1000 to 10000 nM |
| O=C(O)c1ccc(Oc2coc3cc(O)ccc3c2=O)cc1 [Compound V-12, 4-(7-hydroxy-4-oxo-4H-chromen-3-yloxy)benzoic acid] | 1000 to 10000 nM |

Same assay, conditions: Table 7; GSNOR inhibition, IC50 range class a/b/c; read-out: IC50

| IC50 | SMILES |
| --- | --- |
| < 100 nM | O=C(O)c1ccc(-c2cnc(-c3ccc(O)c(F)c3)s2)s1 [VII-10, 5-(2-(3-fluoro-4-hydroxyphenyl)thiazol-5-yl)thiophene-2-carboxylic acid] |
| < 100 nM | CC(C)OCCCn1c(-c2ccc(O)cc2)ccc1-c1ccc(C(=O)O)cc1 [VII-31, 4-(5-(4-hydroxyphenyl)-1-(3-isopropoxypropyl)-1H-pyrrol-2-yl)benzoic acid] |
| < 100 nM | CC(C)CCCn1c(-c2ccc(O)cc2)ccc1-c1ccc(C(=O)O)cc1 [VII-30, 4-(5-(4-hydroxyphenyl)-1-(4-methylpentyl)-1H-pyrrol-2-yl)benzoic acid] |
| < 100 nM | O=C(O)c1ccc(-c2ccc(-c3ccc(O)c(F)c3)s2)s1 [VII-17, 5′-(3-fluoro-4-hydroxyphenyl)-[2,2′-bithiophene]-5-carboxylic acid] |
| 1000 to 10000 nM | O=C(O)c1cccc(-c2csc(-c3ccc(O)cc3)n2)c1 [VII-18, 3-(2-(4-hydroxyphenyl)thiazol-4-yl)benzoic acid] |
| 100 to 1000 nM | O=C(O)c1ccc(-c2ccc(-c3ccc(O)cc3)cc2)cc1 [VII-11, 4″-hydroxy-[1,1′:4′,1″-terphenyl]-4-carboxylic acid] |
| 100 to 1000 nM | CCCCn1c(-c2ccc(O)cc2)ccc1-c1ccc(C(=O)O)s1 [VII-26, 5-(1-butyl-5-(4-hydroxyphenyl)-1H-pyrrol-2-yl)thiophene-2-carboxylic acid] |
| 1000 to 10000 nM | O=C(O)c1ccc(-c2nc(-c3ccc(O)cc3)cs2)cc1 [VII-1, 4-(4-(4-hydroxyphenyl)thiazol-2-yl)benzoic acid] |

Same assay, conditions: Table 8; GSNOR inhibition, IC50 range class a/b/c; read-out: IC50

| IC50 | SMILES |
| --- | --- |
| 1000 to 10000 nM | O=c1c2ccc(O)cc2ccn1[C@H]1CC[C@H](C(=O)O)CC1 [VIII-14, (trans)-4-(6-hydroxy-1-oxoisoquinolin-2(1H)-yl)cyclohexanecarboxylic acid] |
| 1000 to 10000 nM | CSc1nc2cc(O)ccc2c(=O)n1-c1ccc(C(=O)O)cc1 [VIII-1, 4-(7-hydroxy-2-(methylthio)-4-oxoquinazolin-3(4H)-yl)benzoic acid] |
| < 100 nM | O=c1c2ccc(O)cc2cc(C(F)(F)F)n1[C@H]1CC[C@H](C(=O)O)CC1 [VIII-15, (trans)-4-(6-hydroxy-1-oxo-3-(trifluoromethyl)isoquinolin-2(1H)-yl)cyclohexanecarboxylic acid] |
| < 100 nM | O=C(O)c1ccc(N2CCc3cc(O)ccc3C2=O)cc1 [VIII-4, 4-(6-hydroxy-1-oxo-3,4-dihydroisoquinolin-2(1H)-yl)benzoic acid] |
| < 100 nM | O=C(O)c1ccc(-n2ccc3cc(O)ccc3c2=O)cc1 [VIII-3, 4-(6-hydroxy-1-oxoisoquinolin-2(1H)-yl)benzoic acid] |
